Earlier results as cited in paper PMC4907212, “Mucosal and blood-brain barrier transport kinetics of the plant N-alkylamide spilanthol using in vitro and in vivo models” (BMC Complementary and Alternative Medicine, 2016).

Parameters: method as in PMID 19399718
Details: plasma, oral gavage in rats; cited from earlier work

dodeca-2E,4E,8E,10E/Z-tetraenoic acid isobutylamides
elimination half-life: 72 min
